Experiments:
[1] = molecular target: T1, SIRT3 (Homo sapiens, UniProt Q9NTG7); assay: SIRT3 enzyme inhibitory assay (fluorescence); type: biochemical; settings: dose of 10 μM; mean of three experiments; read-out: SIRT3 percentage inhibitory rate
T1 sequence (Q9NTG7 1-399): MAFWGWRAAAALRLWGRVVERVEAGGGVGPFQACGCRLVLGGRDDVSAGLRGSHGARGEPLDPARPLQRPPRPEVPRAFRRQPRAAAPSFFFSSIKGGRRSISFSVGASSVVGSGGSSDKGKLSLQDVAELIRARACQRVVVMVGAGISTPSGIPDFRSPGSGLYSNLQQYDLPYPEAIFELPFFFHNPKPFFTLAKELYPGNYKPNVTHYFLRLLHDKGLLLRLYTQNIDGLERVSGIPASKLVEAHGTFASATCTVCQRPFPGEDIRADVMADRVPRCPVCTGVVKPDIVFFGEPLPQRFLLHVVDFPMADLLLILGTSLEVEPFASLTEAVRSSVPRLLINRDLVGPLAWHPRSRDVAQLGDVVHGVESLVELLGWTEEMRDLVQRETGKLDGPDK
Procedure: All of the enzymatic reactions were conducted at 37°C for 30 min. […] The compounds were diluted in 10% DMSO and 5 ul of the dilution was added to each reaction mixture (50 ul). The assay was performed by quantitating the amount of fluorescent product generated from the enzyme reaction. Fluorescence intensity is then analyzed at excitation wavelength of 350–360 nm and emission wavelength of 450–460 nm on a SpectraMax M5 microtiter plate reader. The IC50 values were calculated using Prism GraphPad software.

[2] = tested on: THP-1 cells; assay: In vitro antiproliferative CCK-8 assay, THP-1; type: cell-based; settings: Homo sapiens; for inhibition at 1 µM: dose of 1 μM, mean of three experiments, read-out: THP-1 percentage inhibitory rate
Procedure: (§1) The proliferation of THP-1, MOLM-13, SEM and MV4-11 cells was tested by CCK-8 assay. Briefly, cells were seeded in 96-well plate with about 5 × 10^3 cells in each well. The cells were treated with P6 or Ara-C (0–10 µM) after 24 h of incubation. CCK-8 reagent ([…]) was added to each well after 72 h of incubation, and cells were incubated at 37°C for 4 h. The light absorbance at 450 nm was measured by using an Opsys microplate reader (Dynex Technologirs, Chantilly, VA, United States). Results are illustrated as percent of cell viability normalized to DMSO-treated control cells.

[3] = tested on: SEM cells; assay: In vitro antiproliferative CCK-8 assay, SEM; type: cell-based; settings: 72 h, read-out: IC50 growth inhibition SEM
Procedure: as §1

[4] = tested on: THP-1, MOLM-13, SEM and MV4-11 cells; assay: Cell apoptosis analysis, MLLr leukemic cells; type: cell-based; settings: 72 h, flow cytometry
Procedure: THP-1, MOLM-13, SEM and MV4-11 cells were treated with P6 (0.45–4 µM) or Ara-C (0.1–2.0 µM) for 72 h, collected and resuspended in 1× binding buffer. Cells were incubated with FITC Annexin V and PI double labeling for 30 min in the dark at room temperature and measured by flow cytometry.

[5] = tested on: MOLM-13 cells; assay: In vitro antiproliferative CCK-8 assay, MOLM-13; type: cell-based; settings: Homo sapiens, 72 h, read-out: IC50 growth inhibition MOLM-13
Procedure: as §1

[6] = tested on: MV4-11 cells; assay: In vitro antiproliferative CCK-8 assay, MV4-11; type: cell-based; settings: Homo sapiens, 72 h, read-out: IC50 growth inhibition MV4-11
Procedure: as §1

[7] = molecular target: T2, SIRT2 (Homo sapiens, UniProt Q8IXJ6); settings: ref Galli et al., 2012; cited from earlier work
T2 sequence (Q8IXJ6 1-389): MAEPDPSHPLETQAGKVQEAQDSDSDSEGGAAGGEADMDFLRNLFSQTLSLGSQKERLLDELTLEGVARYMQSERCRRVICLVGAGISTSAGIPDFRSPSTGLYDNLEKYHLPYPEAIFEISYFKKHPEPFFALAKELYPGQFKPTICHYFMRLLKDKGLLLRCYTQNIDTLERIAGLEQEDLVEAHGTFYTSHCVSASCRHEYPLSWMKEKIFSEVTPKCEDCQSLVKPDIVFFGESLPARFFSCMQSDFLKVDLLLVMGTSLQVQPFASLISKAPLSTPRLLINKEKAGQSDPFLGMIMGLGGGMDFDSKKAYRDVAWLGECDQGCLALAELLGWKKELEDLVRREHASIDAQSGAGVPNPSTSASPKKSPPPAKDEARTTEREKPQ

[8] = molecular target: T3, SIRT1 (Homo sapiens, UniProt Q96EB6); settings: ref Galli et al., 2012; cited from earlier work
T3 sequence (Q96EB6 1-747): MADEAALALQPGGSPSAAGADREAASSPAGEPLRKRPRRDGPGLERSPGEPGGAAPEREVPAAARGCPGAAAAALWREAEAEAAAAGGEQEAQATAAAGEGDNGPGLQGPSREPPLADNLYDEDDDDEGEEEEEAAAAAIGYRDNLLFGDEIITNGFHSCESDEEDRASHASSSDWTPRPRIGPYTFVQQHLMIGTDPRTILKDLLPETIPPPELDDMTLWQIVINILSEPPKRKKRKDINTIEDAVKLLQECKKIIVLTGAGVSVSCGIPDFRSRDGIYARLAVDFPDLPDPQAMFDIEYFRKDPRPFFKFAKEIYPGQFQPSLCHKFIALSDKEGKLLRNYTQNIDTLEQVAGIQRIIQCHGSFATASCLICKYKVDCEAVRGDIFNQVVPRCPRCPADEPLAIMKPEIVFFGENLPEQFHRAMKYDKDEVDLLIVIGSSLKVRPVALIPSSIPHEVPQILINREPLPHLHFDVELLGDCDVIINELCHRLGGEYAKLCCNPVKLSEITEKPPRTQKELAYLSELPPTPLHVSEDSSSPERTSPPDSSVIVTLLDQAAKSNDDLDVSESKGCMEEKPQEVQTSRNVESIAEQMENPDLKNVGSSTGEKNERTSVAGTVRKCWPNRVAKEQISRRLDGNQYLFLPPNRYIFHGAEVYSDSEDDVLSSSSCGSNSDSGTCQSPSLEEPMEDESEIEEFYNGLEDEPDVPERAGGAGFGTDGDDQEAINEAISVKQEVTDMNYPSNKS

inhibition at 10 µM [1] [%] | Compound | inhibition at 1 µM [2] [%] | also measured
40.2 ± 2.91 | C=CC(=O)Nc1ccc(-c2cc(C(=O)Nc3ccc(CC)cc3)c3ccccc3n2)cc1 [Compound P13, 2-(4-Acryloylamino-phenyl)-quinoline-4-carboxylic acid (4-ethyl-phenyl)-amide] | 59.9 ± 3.27 | 
29.6 ± 1.43 | C=CC(=O)Nc1ccc(-c2cc(C(=O)Nc3ccc(OCC)cc3)c3ccccc3n2)cc1 [Compound P17, 2-(4-Acryloylamino-phenyl)-quinoline-4-carboxylic acid (4-ethoxy-phenyl)-amide] | 13.8 ± 1.01 | 
45.5 ± 3.67 | C=CC(=O)Nc1ccc(-c2cc(C(=O)N3CCN(c4ccccc4OC)CC3)c3ccccc3n2)cc1 [Compound P8, N-(4-{4-[4-(2-Methoxy-phenyl)-piperazine-1-carbonyl]-quinolin-2-yl}-phenyl)-acrylamide] | 73.7 ± 3.74 | 
26.4 ± 1.78 | C=CC(=O)Nc1ccc(-c2cc(C(=O)Nc3ccc(F)cc3)c3ccccc3n2)cc1 [Compound P14, 2-(4-Acryloylamino-phenyl)-quinoline-4-carboxylic acid (4-fluoro-phenyl)-amide] | 53.2 ± 4.26 | 
30.2 ± 1.94 | C=CC(=O)Nc1ccc(-c2cc(C(=O)N3CCN(CCc4ccccc4)CC3)c3ccccc3n2)cc1 [Compound P9, N-{4-[4-(4-Phenethyl-piperazine-1-carbonyl)-quinolin-2-yl]-phenyl}-acrylamide] | 11.7 ± 0.88 | 
35.7 ± 1.54 | C=CC(=O)Nc1ccc(-c2cc(C(=O)Nc3ccc(Cl)cc3)c3ccccc3n2)cc1 [Compound P11, 2-(4-Acryloylamino-phenyl)-quinoline-4-carboxylic acid (4-chloro-phenyl)-amide] | 58 ± 2.08 | 
22.2 ± 1.72 | C=CC(=O)Nc1ccc(-c2cc(C(=O)Nc3cccc(OC)c3)c3ccccc3n2)cc1 [Compound P21, 2-(4-Acryloylamino-phenyl)-quinoline-4-carboxylic acid (3-methoxy-phenyl)-amide] | 35.4 ± 1.58 | 

Continued, compound first:

Compound | inhibition at 10 µM [1] [%] | inhibition at 1 µM [2] [%] | also measured
C=CC(=O)Nc1ccc(-c2cc(C(=O)N3CCN(c4ccc(F)cc4)CC3)c3ccccc3n2)cc1 [Compound P1] | 20.2 ± 1.22 | 32.5 ± 2.56 | 
Nc1ccn([C@@H]2O[C@H](CO)[C@@H](O)[C@@H]2O)c(=O)n1 [Ara-C, Cytarabine, reference compound] |  | 80.4 ± 3.22 | IC50 ([2]; 72 h, CCK-8, read-out: IC50 growth inhibition THP-1): 520 nM; IC50 [3]: 60 nM; induction of apoptosis [4]: obvious apoptosis; IC50 [5]: 60 nM; IC50 [6]: 540 nM
c1cncc(-c2c[nH]nn2)c1 [Compound 3-TYP] |  |  | IC50 [7]: 92 nM; IC50 [8]: 88 nM
C=CC(=O)Nc1ccc(-c2cc(C(=O)N3CCN(c4cccc(Cl)c4)CC3)c3ccccc3n2)cc1 [Compound P4, N-(4-{4-[4-(3-Chloro-phenyl)-piperazine-1-carbonyl]-quinolin-2-yl}-phenyl)-acrylamide] | 21.8 ± 1.62 | 57.9 ± 3.04 | 
C=CC(=O)Nc1ccc(-c2cc(C(=O)N3CCN(C(C)C)CC3)c3ccccc3n2)cc1 [Compound P3, N-{4-[4-(4-Isopropyl-piperazine-1-carbonyl)-quinolin-2-yl]-phenyl}-acrylamide] | 30.6 ± 2.45 | 8.78 ± 0.37 | 
C=CC(=O)Nc1ccc(-c2cc(C(=O)N3CCN(C(=O)OC(C)(C)C)CC3)c3ccccc3n2)cc1 [Compound P2, 4-[2-(4-Acryloylamino-phenyl)-quinoline-4-carbonyl]-piperazine-1-carboxylic acid tert-butyl ester] | 23.5 ± 2.13 | 26.4 ± 1.55 | 

Source: article PMC9005971, “Discovery of 2-(4-Acrylamidophenyl)-Quinoline-4-Carboxylic Acid Derivatives as Potent SIRT3 Inhibitors” (Frontiers in Chemistry, 2022)
